Consider 24 molecules from patent US20050250765A1, “Diazepinones as antiviral agents” (priority 2000, published 2005).

Read-outs that look alike come from different tables or passages of the source. Where only a bound is given, the exact number is not on record here.

Series [1] concerns Vero cells. As to conditions: read-out: TC50; 2-day XTT, no virus.
A further series is described as follows: in vitro. As to conditions: African green monkey, TC50.
Series [2] is described as follows: Metabolic stability, in vitro half-life in human liver microsomes. The conditions noted are these: liver microsomes (pooled), 30 μM compound, 0.5 mg/mL pooled microsomal protein, 1.0 mM NADPH, 37° C., pH 7.4, read-out: t½ (min) Human Liver Microsome Preparation. Type of series: in vitro ADME. On the procedure: Compounds were individually incubated (30 μM, dissolved in DMSO) with human and mouse liver microsomes. The incubation consisted of 50 mM KPO4, pH 7.4 buffer with 0.5 mg/mL pooled microsomal protein, 30 μM compound, and 1.0 mM NADPH. The total incubate volume was 0.5 mL. The incubate solution was pro-incubated for 3 minutes at 37° C. and the reaction initiated by the addition of NADPH. At 0, 10, 20, and 40 minutes 50 μL aliquots were removed and quenched with 100 μL acetonitrile and 25 μL of internal standard. Standard curves of each compound were prepared in a simialr manner at a concentration range of 7.5 μM to 45 μM. Th in vitro metabolic half-life determinations of these preparations were determined from the concentration vs. time plots using WinNonlin software. The in vitro half-life data represents the extent of oxidative and hydrolytic metabolism.

Series [3] concerns Vero cells. As to conditions: African green monkey, 2 day.

Consider “5-(3-Methoxy-benzyl)-3-nitro-5,6,7,8-tetrahydro-10-thia-5,8-diaza-benz[a]azulen-9-one [W]”, for which the CC50 with Vero cells [1] was 100 µM.
For the molecule `COc1ccc2sc3c(c2c1)N(Cc1ccc(C#N)cc1)CCN(C)C3=O` [AA4, 4-(3-Methoxy-8-methyl-9-oxo-6,7,8,9-tetrahydro-10-thia-5,8-diaza-benzo[a]azulen-5-ylmethyl)-benzonitrile], the CC50 at 2 day in the series “in vitro” was 100 µM.
In the case of `COc1ccc2sc3c(c2c1)NCCNC3=O` [B, 3-Methoxy-5,6,7,8-tetrahydro-10-thia-5,8-diaza-benzo[a]azulen-9-one], the half-life at 30 μM in series [2] is 66 min. This molecule also displayed a CC50 at 2 day in “in vitro” of 4.5 µM.
For `COc1cccc(CN2CCNC(=O)c3sc4ccc(OC)cc4c32)c1` [C, 3-Methoxy-5-(3-methoxy-benzyl)-5,6,7,8-tetrahydro-10-thia-5,8-diaza-benzo[a]azulen-9-one], in “in vitro”, the CC50 at 2 day was 10 µM.
The molecule `C=C(C)CN1CCNC(=O)c2sc3ccc(F)cc3c21` [CC5, 3-Fluoro-5-(2-methyl-allyl)-5,6,7,8-tetrahydro-10-thia-5,8-diaza-benz[a]azulen-9-one] had a CC50 at 2 day in “in vitro” of 18.5 µM.
Turning to `CCCN1CCNC(=O)c2sc3ccc(OCC)cc3c21` [D, 3-Ethoxy-5-propyl-5,6,7,8-tetrahydro-10-thia-5,8-diaza-benzo[a]azulen-9-one], in “in vitro”, the CC50 at 2 day stood at 100 µM.
`CCCCN1CCNC(=O)c2sc3ccc([N+](=O)[O-])cc3c21` [DD, 5-n-Butyl-3-nitro-5,6,7,8-tetrahydro-10-thia-5,8-diaza-benz[a]azulen-9-one] yielded a CC50 at 2 day in “in vitro” of 12.9 µM.
For the molecule `COc1cccc(CN2CC(C)NC(=O)c3sc4ccc(OC)cc4c32)c1` (centres unmarked) [EE2, 3-Methoxy-5-(3-methoxy-benzyl)-7-methyl-5,6,7,8-tetrahydro-10-thia-5,8-diaza-benzo[a]azulen-9-one], the CC50 in the series on Vero cells [3] is 3.4 µM.
On to `O=C1NCCNc2c1ccc1cnccc21` [F, 8,9,10,11-Tetrahydro-3,8,11-triaza-cyclohepta[a]naphthalen-7-one], for which, in series [2], the half-life at 30 μM is > 200 min. Besides, the CC50 at 2 day in “in vitro” was 1.7 µM.
On to `COc1cccc(CN2CCNC(=O)c3ccc4cnccc4c32)c1` [FF4, 11-(3-Methoxy-benzyl)-8,9,10,11-tetrahydro-3,8,11-triaza-cyclohepta[a]naphthalen-7-one], for which, in series [2], the half-life at 30 μM was > 200 min.
Consider `CN1CCNC(=O)c2ccc3cnccc3c21` [GG4, 11-Methyl-8,9,10,11-tetrahydro-3,8,11-triaza-cyclohepta[a]naphthalen-7-one], for which, in “in vitro”, the CC50 at 2 day was 11.5 µM.
Consider `CCN1CCNC(=O)c2oc3ccc(OC)cc3c21` [H, 5-Ethyl-3-methoxy-5,6,7,8-tetrahydro-10-oxa-5,8-diaza-benzo[a]azulen-9-one], for which the half-life at 30 μM in series [2] amounted to 200 min.
For `COc1ccc(CN2CC(C)(C)NC(=O)c3sc4ccc(OC)cc4c32)cc1` [K, 3-Methoxy-5-(4-methoxy-benzyl)-7,7-dimethyl-5,6,7,8-tetrahydro-10-thia-5,8-diaza-benzo[a]azulen-9-one], the half-life at 30 μM in series [2] stood at 150 min.
`C=C(Cl)CN1CCNC(=O)c2sc3ccc(OC)cc3c21` [MM3, 5-(2-Chloro-allyl)-3-methoxy-5,6,7,8-tetrahydro-10-thia-5,8-diaza-benzo[a]azulen-9-one] came in with a CC50 at 2 day in “in vitro” of 3 µM.
`CCOc1ccc2sc3c(c2c1)NCC(C)(C)NC3=O` [NN, 3-Ethoxy-7,7-dimethyl-5,6,7,8-tetrahydro-10-thia-5,8-diaza-benzo[a]azulen-9-one]: in series [2], the half-life at 30 μM turned out to be 133 min.
With `COc1cccc(CN2CC(C)NC(=O)c3sc4ccc(OC)cc4c32)c1` (centres unmarked) [O, 3-Methoxy-5-(3-methoxy-benzyl)-7-methyl-5,6,7,8-tetrahydro-10-thia-5,8-diaza-benzo[a]azulen-9-one], in the series on Vero cells [3], the CC50 is 18 µM.
For the molecule `COc1ccc2sc3c(c2c1)NC(Cc1ccccc1)CNC3=O` (centres unmarked) [PP2, 6-Benzyl-3-methoxy-5,6,7,8-tetrahydro-10-thia-5,8-diaza-benzo[a]azulen-9-one], the CC50 at 2 day in “in vitro” came out at 1.1 µM.
`C=C(C)CN1CCNC(=O)c2sc3ccc([N+](=O)[O-])cc3c21` [Q, 5-(2-Methyl-allyl)-3-nitro-5,6,7,8-tetrahydro-10-thia-5,8-diaza-benz[a]azulen-9-one] gave a CC50 at 2 day in “in vitro” of 6 µM.
Same read-out and setting: under `COc1ccc2sc3c(c2c1)N(Cc1ccc([N+](=O)[O-])cc1)CCNC3=O` [SS3, 3-Methoxy-5-(4-nitro-benzyl)-5,6,7,8-tetrahydro-10-thia-5,8-diaza-benzo[a]azulen-9-one] stands 83 µM; under `CCCN1CC(C)(C)NC(=O)c2sc3ccc(OC)cc3c21` [TT, 3-Methoxy-7,7-dimethyl-5-propyl-5,6,7,8-tetrahydro-10-thia-5,8-diaza-benzo[a]azulen-9-one], 0.4 µM; under `C=CCN1CCNC(=O)c2sc3ccc([N+](=O)[O-])cc3c21` [U, 5-Allyl-3-nitro-5,6,7,8-tetrahydro-10-thia-5,8-diaza-benz[a]azulen-9-one], 8.1 µM.
On the same count and under the same terms, under `COc1cccc(CN2CCNC(=O)c3sc4ccc([N+](=O)[O-])cc4c32)c1` [V, 5-(3-Methoxy-benzyl)-3-nitro-5,6,7,8-tetrahydro-10-thia-5,8-diaza-benz[a]azulen-9-one] stands 1.3 µM; under `COc1ccc2sc3c(c2c1)N(Cc1ccccc1C)CCNC3=O` [WW3, 3-Methoxy-5-(2-methyl-benzyl)-5,6,7,8-tetrahydro-10-thia-5,8-diaza-benzo[a]azulen-9-one], 10.2 µM; under `COc1ccc2oc3c(c2c1)N(CCC(C)C)CCNC3=O` [YY5, 3-Methoxy-5-(3-methyl-butyl)-5,6,7,8-tetrahydro-10-oxa-5,8-diaza-benzo[a]azulen-9-one], 10 µM.
